Experimental data: patent US7777038B2, “Carbostyril compound” (Otsuka Pharmaceutical Co., Ltd., priority 2004, dated 2010)

Experiments:
[1] = system: human Trefoil Factor 2 (hTFF2) gene; experiment: hTFF2 gene reporter assay (luciferase) using pGL3-hTFF2pro•pWL-neo/MKN-45 #6-2 cell line; type: cell-based; details: test compound concentration 10^−6 M; 24 hours culture; luciferase activity as control % of dimethylsulfoxide-added wells (100%)
Experimental: Transcription promoting activity on human Trefoil Factor 2 (hTFF2) gene of test compounds was evaluated by means of an hTFF2 gene reporter assay.
(1) Preparation of hTFF2 Gene Reporter Vector pGL3-hTFF2pro
DNA was extracted from HeLa cells (CCL-2, DAINIPPON PHARMACEUTICAL CO., LTD.) using a deoxyribonucleic acid (DNA) extraction kit (DNeasy™ Tissue Kit, manufactured by QIAGEN). The hTFF2 promoter region was amplified using the extracted DNA as a template by means of the polymerase chain reaction (PCR). The oligomers 5′-[…]-3′ and 5′-[…]-3′ were selected as PCR primers to be amplified, based on the report by Beck et al. (Beck S., Sommer P., Blin N., Gott P., 5′-flanking motifs control cell-specific expression of trefoil factor genes (TFF), Int. J. Mol. Med. 2(3), 353-361 (1998)). Platinum® Pfx DNA polymerase was used as DNA polymerase. The PCR was performed under the conditions of denaturing for 30 seconds at 95° C., annealing for 30 seconds at 55° C. and extending for 75 seconds at 68° C., and the procedures were repeated for 32 cycles.
The PCR products were separated and purified by 1% agarose gel electrophoresis, and cloned to a pCR-BluntII-TOPO vector attached to a cloning kit (Zero Blunt® TOPO® PCR Cloning Kit, manufactured by Invitrogen Corporation). The produced plasmid pCR-Blunt-TFF2pro was introduced into E. coli for transformation (TOP 10 Ultracomp™ Cells, manufactured by Invitrogen Corporation), and transformant strain pCR-Blunt-TFF2pro/TOP10 was selectively cultured in LB agar medium containing 30 μg/ml of Zeocin (Zeocin, manufactured by Invitrogen Corporation). The pCR-Blunt-TFF2pro/TOP10 was subjected to shaking culture in 50 ml of LB medium containing 30 μg/ml of Zeocin at 37° C. over night, and a plasmid was prepared using a plasmid preparation kit (Concert™ High Purity Midiprep System, manufactured by GIBCO BRL).
The nucleotide sequence of the PCR product cloned to the plasmid pCR-Blunt-TFF2pro was determined. The determined nucleotide sequence was compared with the counterpart of hTFF2 promoter region reported in a gene bank (GenBank accession AB038162). The nucleotide sequence of the MluI-HindIII region cloned in pCR-Blunt-TFF2pro was identical to GenBank accession AB038162 (FIG. 1).
The underlined portions indicate the recognition sequence (ACGCGT) of the restriction enzyme MluI and the recognition sequence (AAGCTT) of the restriction enzyme HindIII. The nucleotide sequences of the MluI-HindIII region are identical between the hTFF2 promoter region reported in GenBank and the PCR product cloned to the plasmid pCR-Blunt-TFF2pro. […]

Structure (SMILES) | melting point | TFF2 Production Promoting Activity [1]
Cl.O=C1NC(=S)SC1Cc1cccc2c1CCC(=O)N2Cc1ccc(Cl)nc1 (centres unmarked) | 70 to 80 °C | 
COc1ccc(CCC2SC(=O)NC2=O)c2ccc(=O)n(C)c12 (centres unmarked) [Example 2, 5-[2-(8-methoxy-1-methyl-2-oxo-1,2-dihydroquinolin-5-yl)ethyl]thiazolidine-2,4-dione] | 222 to 224 °C | 
COc1ccc(CCCC2SC(=O)NC2=O)c2ccc(=O)n(C)c12 (centres unmarked) [Example 3, 5-[3-(8-methoxy-1-methyl-2-oxo-1,2-dihydroquinolin-5-yl)propyl]thiazolidine-2,4-dione] | 172 to 175 °C | 
COc1ccc(C2SC(=O)NC2=O)c2ccc(=O)n(C)c12 (centres unmarked) [Example 4, 5-(8-methoxy-1-methyl-2-oxo-1,2-dihydroquinolin-5-yl)thiazolidine-2,4-dione] | 255 °C (dec.) | 
COc1ccc(C=C2SC(=O)NC2=O)c2ccc(=O)n(C)c12 [Example 9, 5-[1-(8-Methoxy-1-methyl-2-oxo-1,2-dihydroquinolin-5-yl)methylidene]thiazolidine-2,4-dione] | ≥ 300 °C | 
COc1ccc(C=C2SC(=O)N(C)C2=O)c2ccc(=O)n(C)c12 [Example 10, 5-[1-(8-Methoxy-1-methyl-2-oxo-1,2-dihydroquinolin-5-yl)methylidene]-3-methylthiazolidine-2,4-dione] | 270 °C (dec.) | 
O=C1NC(=O)C(Cc2cc(=O)n(Cc3ccc(Cl)cc3)c3ccccc23)S1 (centres unmarked) [Example 14, 5-[1-(4-chlorobenzyl)-2-oxo-1,2-dihydroquinolin-4-ylmethyl]thiazolidine-2,4-dione] | 142.1 to 143.7 °C | 
O=C1NC(=O)C(Cc2cc3ccccc3n(Cc3ccc(-c4ccccc4)cc3)c2=O)S1 (centres unmarked) [Example 17, 5-[1-(Biphenyl-4-ylmethyl)-2-oxo-1,2-dihydroquinolin-3-ylmethyl]thiazolidine-2,4-dione] | 220.4 to 221.8 °C | 
O=C1NC(=O)C(Cc2ccc3c(c2)N(Cc2ccc(-c4ccccc4)cc2)C(=O)CC3)S1 (centres unmarked) [Example 18, 5-[1-(Biphenyl-4-ylmethyl)-2-oxo-1,2,3,4-tetrahydroquinolin-7-ylmethyl]thiazolidine-2,4-dione] | 213.2 to 213.7 °C | 
COc1ccc(CC2SC(=O)NC2=O)c2c1N(Cc1ccc([N+](=O)[O-])cc1)C(=O)CC2 (centres unmarked) [Example 20, 5-[8-methoxy-1-(4-nitrobenzyl)-2-oxo-1,2,3,4-tetrahydroquinolin-5-ylmethyl]thiazolidine-2,4-dione] | 246.5 to 246.6 °C | 
COc1ccc(CC2SC(=O)NC2=O)c2c1N(Cc1ccc(N)cc1)C(=O)CC2 (centres unmarked) [Example 21, 5-[1-(4-aminobenzyl)-8-methoxy-2-oxo-1,2,3,4-tetrahydroquinolin-5-ylmethyl]thiazolidine-2,4-dione] | 174.1 to 174.8 °C | 
COc1ccc(CC2SC(=O)NC2=O)c2c1N(Cc1ccc(NC(=O)c3ccc4ccccc4c3)cc1)C(=O)CC2 (centres unmarked) [Example 22, 5-{8-methoxy-1-[4-(2-naphthoylamino)benzyl]-2-oxo-1,2,3,4-tetrahydroquinolin-5-ylmethyl}thiazolidine-2,4-dione] |  | ++ (a TFF2 production promoting activity of 1000% or higher at a test compound concentration of 10^−6 M)
CCCCCOC(=O)Nc1ccc(CN2C(=O)CCc3c(CC4SC(=O)NC4=O)ccc(OC)c32)cc1 (centres unmarked) [Example 23, 5-[1-(4-pentyloxycarbonylaminobenzyl)-8-methoxy-2-oxo-1,2,3,4-tetrahydroquinolin-5-ylmethyl]thiazolidine-2,4-dione] | 98 to 102 °C | 
COc1ccc(CC2SC(=O)NC2=O)c2c1N(Cc1ccc(C(=O)Nc3ccc(C(C)C)cc3)cc1)C(=O)CC2 (centres unmarked) [Example 27, 5-{1-[4-(4-isopropylphenylaminocarbonyl)benzyl]-8-methoxy-2-oxo-1,2,3,4-tetrahydroquinolin-5-ylmethyl}thiazolidine-2,4-dione] | 243 to 244 °C | 
O=C1NC(=O)C(Cc2ccc(O)c3c2CCC(=O)N3Cc2ccccc2)S1 (centres unmarked) [Example 31, 5-(1-benzyl-8-hydroxy-2-oxo-1,2,3,4-tetrahydroquinolin-5-ylmethyl)thiazolidine-2,4-dione] | 213.2 to 213.7 °C | 
CCCCOc1ccc(CC2SC(=O)NC2=O)c2c1N(Cc1ccccc1)C(=O)CC2 (centres unmarked) [Example 32, 5-(1-benzyl-8-butoxy-2-oxo-1,2,3,4-tetrahydroquinolin-5-ylmethyl)thiazolidine-2,4-dione] |  | + (a TFF2 production promoting activity of 300% or higher at a test compound concentration of 10^−6 M)
COc1ccc(CC2SC(=O)NC2=O)c2c1N(CC(=O)O)C(=O)CC2 (centres unmarked) [Example 34, 5-(1-carboxymethyl-8-methoxy-2-oxo-1,2,3,4-tetrahydroquinolin-5-ylmethyl)thiazolidine-2,4-dione] | 251 to 255 °C | 
COC(=O)CN1C(=O)SC(Cc2ccc(OC)c3c2ccc(=O)n3C)C1=O (centres unmarked) [Example 43, 3-methoxycarbonylmethyl-5-(8-methoxy-1-methyl-2-oxo-1,2-dihydroquinolin-5-ylmethyl)thiazolidine-2,4-dione] | 182 to 184 °C | 
O=C1NC(=S)SC1Cc1cccc2c1CCC(=O)N2Cc1ccc(-c2ccccc2)cc1 (centres unmarked) [Example 46, 1-(biphenyl-4-ylmethyl)-5-(4-oxo-2-thioxothiazolidin-5-ylmethyl)-3,4-dihydro-1H-quinolin-2-one] | 186.3 to 187.1 °C | 
O=C1NC(=S)SC1Cc1cccc2c1CCC(=O)N2Cc1ccc(Br)cc1 (centres unmarked) [Example 47, 1-(4-bromobenzyl)-5-(4-oxo-2-thioxothiazolidin-5-ylmethyl)-3,4-dihydro-1H-quinolin-2-one] | 191.3 to 192.1 °C | 
O=C1NC(=O)C(Cc2cc(=O)[nH]c3ccccc23)S1 (centres unmarked) [Example 111] | 290 to 291 °C | 

More lines, main results first:

melting point | Structure (SMILES) | TFF2 Production Promoting Activity [1]
246 to 248 °C | Cn1c(=O)cc(CC2SC(=O)NC2=O)c2ccccc21 (centres unmarked) [Example 112] | 
143 to 145 °C | CN1C(=O)SC(Cc2cc(=O)n(C)c3ccccc23)C1=O (centres unmarked) [Example 113] | 
204 to 208 °C | COc1ccc(CC2SC(=O)NC2=O)c2c1N(C)C(=O)CC2 (centres unmarked) [Example 145] | 
253 to 256 °C | COc1ccc(CC2SC(=O)NC2=O)c2c1NC(=O)CC2 (centres unmarked) [Example 146] | 
179 to 181 °C | CCN1C(=O)CCc2c(CC3SC(=O)NC3=O)ccc(OC)c21 (centres unmarked) [Example 147] | 
195.7 to 196.9 °C | CCNC(=O)Nc1ccc(CN2C(=O)CCc3c(CC4SC(=O)NC4=O)ccc(OC)c32)cc1 (centres unmarked) [Example 227] | 
198.3 to 200.3 °C | CCC(=O)Nc1ccc(CN2C(=O)CCc3c(CC4SC(=O)NC4=O)ccc(OC)c32)cc1 (centres unmarked) [Example 228] | 
215.2 to 217.8 °C | COc1ccc(CC2SC(=O)NC2=O)c2c1N(Cc1ccc(NC(C)=O)cc1)C(=O)CC2 (centres unmarked) [Example 229] | 
136.3 to 138.6 °C | COC(=O)Nc1ccc(CN2C(=O)CCc3c(CC4SC(=O)NC4=O)ccc(OC)c32)cc1 (centres unmarked) [Example 230] | 
233 to 234.2 °C | COc1ccc(CC2SC(=O)NC2=O)c2c1N(Cc1ccc(NC(=O)c3cccnc3)cc1)C(=O)CC2 (centres unmarked) [Example 231] | 
209.5 to 211 °C | CC(=O)N1CCC(CCN2C(=O)CCc3c(CC4SC(=O)NC4=O)cccc32)CC1 (centres unmarked) [Example 614] | 
